Experimental findings from patent US20250186437A1, “CARBOLINE COMPOUNDS AND USE THEREOF” (PTC Therapeutics, Inc., priority 2021, published 2025) are described below.

The subject of experiment [1] is MOLM-13 cells. In words: MOLM-13 Cell Proliferation Assay (indicator of DHODH inhibition). It counts as cell-based. As to conditions: Homo sapiens, 72 Hours of culture, CellTiter-Glo, no uridine. In outline:
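Proliferation readout via CellTiter-Glo luminescence after 72 h compound treatment (37 °C, 5% CO2, 0.5% DMSO) of MOLM-13 cells seeded at 10^4 per well in RPMI 1640/10% FBS, used as a DHODH-inhibition indicator since these cells rely on de novo pyrimidine synthesis.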

Experiment [2] concerns MOLM-13 cells. In words: MOLM-13 Uridine Rescue Assay. In kind it is cell-based. As to conditions: Homo sapiens; MOLM-13 cell proliferation with 100 μM Uridine added, 72 Hours of culture. How it is done: The following assay was conducted to measure proliferation of MOLM-13 cells in the presence of each compound studied. This assay was included as an indicator of DHODH inhibition, as growth of MOLM-13 cells is known to depend on synthesis of pyrimidines using the de novo pathway, which can be blocked by inhibition of DHODH. • 1. MOLM-13 cells were cultured in RPMI 1640 medium+10% Fetal Bovine Serum (FBS). Only low passage cells (<20) were used for the compound tests • 2. On day 1, Log-phase growing Molm-13 Cells were counted and diluted to 10^5 cells/mL in RPMI 1640 medium+10% FBS • 3. 100 μL of diluted MOLM-13 cells in 96 well white plates were seeded, for a final density of 10^4 cells/well. • 4. 0.5 μL of pre-diluted 200× compounds or DMSO control was added to each well. The final DMSO concentration was 0.5%. • 5. After 72 Hours of culture at 37° C., 5% CO2, the plates were taken out and cooled to RT, then 50 μL CellTiter-Glo® (Promega) was added, and the composition was mixed at RT for 10 minutes. • 6. The plates were then read by ViewLux (Speed-fast, Gain-High, Bining-1X, 5 seconds).
Several compounds were also tested in a Uridine rescue assay. In the Uridine rescue assay, using the procedure in Example 1 above, an additional plate of MOLM-13 cell cultures was prepared, to which 100 μM of Uridine was added in step 3 of the process.

As to `FC(F)(F)c1ccnc(N2CCc3c([nH]c4ccc(-n5nccn5)cc34)C2c2ccc(N3CCOCC3)nc2)n1` (stereo not drawn) [Compound 316, 1-[6-(morpholin-4-yl)pyridin-3-yl]-6-(2H-1,2,3-triazol-2-yl)-2-[4-(trifluoromethyl)pyrimidin-2-yl]-2,3,4,9-tetrahydro-1H-pyrido[3,4-b]indole], the IC50 in experiment [1] is 3.8 nM; in experiment [2] it was 10700 nM.

For `Cc1ccc(C2c3[nH]c4ccc(Cl)c(F)c4c3CCN2c2nccc(C(F)(F)F)n2)c(F)c1F` (stereo not drawn) [Compound 197, 6-chloro-1-(2,3-difluoro-4-methylphenyl)-5-fluoro-2-[4-(trifluoromethyl)pyrimidin-2-yl]-2,3,4,9-tetrahydro-1H-pyrido[3,4-b]indole], the IC50 was found to be 1.1 nM in experiment [1] and 17500 nM in experiment [2].

In the case of `Cc1nc(C)nc(N2CCc3c([nH]c4ccc(Cl)cc34)C2c2ccc(N3CCOCC3)nc2)n1` (stereo not drawn) [Compound 324, 6-chloro-2-(4,6-dimethyl-1,3,5-triazin-2-yl)-1-[6-(morpholin-4-yl)pyridin-3-yl]-2,3,4,9-tetrahydro-1H-pyrido[3,4-b]indole], the IC50 in experiment [1] stood at 13.4 nM; in experiment [2], 9720 nM.

As to `N#Cc1cc(C#N)nc(N2CCc3c([nH]c4ccc(Cl)cc34)[C@@H]2c2cnc(N3CCOCC3)nc2)n1` [Compound 398, 2-{(1S)-6-chloro-1-[2-(morpholin-4-yl)pyrimidin-5-yl]-1,3,4,9-tetrahydro-2H-pyrido[3,4-b]indol-2-yl}pyrimidine-4,6-dicarbonitrile], the IC50 in experiment [1] came out at 10.6 nM; in experiment [2] it was 720 nM.

As for `Cc1ccc(C2c3[nH]c4ccc(Cl)c(N)c4c3CCN2c2nccc(C(F)(F)F)n2)c(F)c1F` (stereo not drawn) [Compound 273, 6-chloro-1-(2,3-difluoro-4-methylphenyl)-2-[4-(trifluoromethyl)pyrimidin-2-yl]-2,3,4,9-tetrahydro-1H-pyrido[3,4-b]indol-5-amine], the IC50 was 7.5 nM in experiment [1] and 29700 nM in experiment [2].

As for `CN1CCN(c2ncc(C3c4[nH]c5ccc(Cl)cc5c4CCN3c3nc(C(F)(F)F)cc(C(F)(F)F)n3)cn2)CC1` (stereo not drawn) [Compound 381, 2-[4,6-bis(trifluoromethyl)pyrimidin-2-yl]-6-chloro-1-[2-(4-methylpiperazin-1-yl)pyrimidin-5-yl]-2,3,4,9-tetrahydro-1H-pyrido[3,4-b]indole], the IC50 in experiment [1] is 0.7 nM; in experiment [2], 4290 nM.

Consider `CN1CCN(c2ncc([C@H]3c4[nH]c5ccc(Cl)cc5c4CCN3c3nc(C(F)(F)F)cc(C(F)(F)F)n3)cn2)CC1` [Compound 419, (1S)-2-[4,6-bis(trifluoromethyl)pyrimidin-2-yl]-6-chloro-1-[2-(4-methylpiperazin-1-yl)pyrimidin-5-yl]-2,3,4,9-tetrahydro-1H-pyrido[3,4-b]indole], for which the figures for the IC50 in experiment [1] and in experiment [2] were 0.5 nM and 5640 nM, respectively.

`Cc1nc(C)nc(N2CCc3c([nH]c4ccc(Cl)cc34)C2c2ccc(F)cc2)n1` (stereo not drawn) [Compound 450, 6-chloro-2-(4,6-dimethyl-1,3,5-triazin-2-yl)-1-(4-fluorophenyl)-2,3,4,9-tetrahydro-1H-pyrido[3,4-b]indole] gave an IC50 in experiment [1] of 29.8 nM.

On to `N#Cc1ccc(C2c3[nH]c4cc(F)c(Cl)cc4c3CCN2c2nccc(C(F)(F)F)n2)cc1` (stereo not drawn) [Compound 100, 4-{6-chloro-7-fluoro-2-[4-(trifluoromethyl)pyrimidin-2-yl]-2,3,4,9-tetrahydro-1H-pyrido[3,4-b]indol-1-yl}benzonitrile], for which the midpoint of inhibition in experiment [1], the IC50, lay at 6.4 nM.

Regarding `Cc1ccc(C2c3[nH]c4ccc(Cl)cc4c3CCN2c2ncnc(C)n2)cc1` (stereo not drawn) [Compound 322, 6-chloro-1-(4-methylphenyl)-2-(4-methyl-1,3,5-triazin-2-yl)-2,3,4,9-tetrahydro-1H-pyrido[3,4-b]indole], it took 25.9 nM to reach half-maximal inhibition in experiment [1] (IC50).

With `Cc1ccc(C2c3[nH]c4cc(F)c(Cl)cc4c3CCN2c2nc(C)cc(C#N)n2)cc1` (stereo not drawn) [Compound 151, 2-[6-chloro-7-fluoro-1-(4-methylphenyl)-1,3,4,9-tetrahydro-2H-pyrido[3,4-b]indol-2-yl]-6-methylpyrimidine-4-carbonitrile], the IC50 in experiment [1] stood at 4.5 nM.

Take `O=[N+]([O-])c1c(Cl)ccc2[nH]c3c(c12)CCN(c1nccc(C(F)(F)F)n1)C3c1cnc(N2CCOCC2)nc1` (stereo not drawn) [Compound 326, 6-chloro-1-[2-(morpholin-4-yl)pyrimidin-5-yl]-5-nitro-2-[4-(trifluoromethyl)pyrimidin-2-yl]-2,3,4,9-tetrahydro-1H-pyrido[3,4-b]indole]: the IC50 in experiment [1] came to 29.7 nM.

In experiment [1], `Cc1nc(C)nc(N2CCc3c([nH]c4ccc(-n5nccn5)cc34)C2c2cnc(N3CCOCC3)nc2)n1` (stereo not drawn) [Compound 300, 2-(4,6-dimethyl-1,3,5-triazin-2-yl)-1-[2-(morpholin-4-yl)pyrimidin-5-yl]-6-(2H-1,2,3-triazol-2-yl)-2,3,4,9-tetrahydro-1H-pyrido[3,4-b]indole] registered an IC50 of 20.5 nM. The IC50 values of the last two molecules are within 1.5-fold of each other.

On to `CN(C)c1ccc(C2c3[nH]c4ccc(Cl)c(F)c4c3CCN2c2ncc(F)cn2)cn1` (stereo not drawn) [Compound 194, 5-[6-chloro-5-fluoro-2-(5-fluoropyrimidin-2-yl)-2,3,4,9-tetrahydro-1H-pyrido[3,4-b]indol-1-yl]-N,N-dimethylpyridin-2-amine], for which, in experiment [1], half-maximal inhibition (IC50) required 11.4 nM.

Turning to `FC(F)(F)c1ccnc(N2CCc3c([nH]c4ccc(Cl)cc34)C2c2cnc(N3CC4CC3CO4)nc2)n1` (stereo not drawn) [Compound 335, 6-chloro-1-[2-(2-oxa-5-azabicyclo[2.2.1]heptan-5-yl)pyrimidin-5-yl]-2-[4-(trifluoromethyl)pyrimidin-2-yl]-2,3,4,9-tetrahydro-1H-pyrido[3,4-b]indole], the IC50 in experiment [1] is 7.6 nM.

With `Fc1c(Cl)ccc2[nH]c3c(c12)CCN(c1nccc(C(F)(F)F)n1)C3c1ccc(C(F)(F)F)cc1` (stereo not drawn) [Compound 74, 6-chloro-5-fluoro-1-[4-(trifluoromethyl)phenyl]-2-[4-(trifluoromethyl)pyrimidin-2-yl]-2,3,4,9-tetrahydro-1H-pyrido[3,4-b]indole], in experiment [1], half-maximal inhibition (IC50) was put at 5.7 nM.

In experiment [1], `Cc1ccc(C2c3[nH]c4ccc(Cl)cc4c3CCN2c2nc(C)cc(C#N)n2)cc1` (stereo not drawn) [Compound 379, 2-[6-chloro-1-(4-methylphenyl)-1,3,4,9-tetrahydro-2H-pyrido[3,4-b]indol-2-yl]-6-methylpyrimidine-4-carbonitrile] returned a half-inhibitory concentration (IC50) of 4.5 nM.

The molecule `Nc1ncc(C2c3[nH]c4ccc(Cl)c(F)c4c3CCN2c2nccc(C(F)(F)F)n2)cn1` (stereo not drawn) [Compound 225, 5-{6-chloro-5-fluoro-2-[4-(trifluoromethyl)pyrimidin-2-yl]-2,3,4,9-tetrahydro-1H-pyrido[3,4-b]indol-1-yl}pyrimidin-2-amine] registered an IC50 in experiment [1] of 18.3 nM.

`CNc1ncc(C2c3[nH]c4ccc(Cl)c(F)c4c3CCN2c2nccc(C(F)(F)F)n2)cn1` (stereo not drawn) [Compound 199, 5-{6-chloro-5-fluoro-2-[4-(trifluoromethyl)pyrimidin-2-yl]-2,3,4,9-tetrahydro-1H-pyrido[3,4-b]indol-1-yl}-N-methylpyrimidin-2-amine]: the IC50 in experiment [1] turned out to be 5.4 nM.

In the case of `N#Cc1ccc(C2c3[nH]c4ccc(Cl)c(F)c4c3CCN2c2nccc(C(F)(F)F)n2)cc1` (stereo not drawn) [Compound 89, 4-{6-chloro-5-fluoro-2-[4-(trifluoromethyl)pyrimidin-2-yl]-2,3,4,9-tetrahydro-1H-pyrido[3,4-b]indol-1-yl}benzonitrile], in experiment [1], half-maximal inhibition (IC50) was put at 5.7 nM.
